Experimental data: patent US20240251792A1, “WEED CONTROL METHOD” (SYNGENTA CROP PROTECTION AG, priority 2021, published 2024)
Read-outs that look alike come from different tables or passages of the source.

Columns and labels:
Format in all cases: in vivo
AMAPA = experiment: Pre-emergence biological efficacy (Table 3); settings: 312 h, after 13 days, read-out: evaluation (100=total damage to plant; 0=no damage to plant)
Outline: (§1)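 Seeds were sown in standard soil in pots, kept one day in a glasshouse (24/19 °C day/night, 16 h light), then sprayed with an aqueous dilution in 0.2% Genapol X080 of a 50 g/l stock in acetone/AMA emulsifier mix. Damage was scored visually after 13 days (0 = none, 100 = total).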

IPOHE = experiment: Pre-emergence biological efficacy (Table 3); settings: Ipomoea hederacea, 312 h, after 13 days, read-out: evaluation (100=total damage to plant; 0=no damage to plant)
Outline: as §1

ECHCG = experiment: Pre-emergence biological efficacy (Table 3); settings: Echinochloa crus-galli, 312 h, after 13 days, read-out: evaluation (100=total damage to plant; 0=no damage to plant)
Outline: as §1

SETFA = experiment: Pre-emergence biological efficacy (Table 3); settings: Setaria faberi, 312 h, after 13 days, read-out: evaluation (100=total damage to plant; 0=no damage to plant)
Outline: as §1

AMARE = experiment: Pre-emergence biological efficacy (Table 3); settings: Amaranthus retroflexus, 312 h, after 13 days, read-out: evaluation (100=total damage to plant; 0=no damage to plant)
Outline: as §1

ZEAMX = experiment: Pre-emergence biological efficacy (Table 3); settings: 312 h, after 13 days, read-out: evaluation (100=total damage to plant; 0=no damage to plant)
Outline: as §1

weeds and/or crops = experiment: Post-emergence biological efficacy (Table 4); settings: 312 h, evaluated after 13 days
Outline: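 Weeds and crops were grown 14 days in a glasshouse, then sprayed post-emergence with compound formulated in acetone/F50 and diluted in 0.2% Genapol X080 to the final dose. Damage was scored after 13 days on a 0–100 scale, where 100 is total damage.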

[1] = AMAPA, read-out: damage to plant AMAPA (100=total damage; 0=no damage)
[2] = ZEAMX, read-out: damage to plant ZEAMX (100=total damage; 0=no damage)
[3] = Amaranthus retroflexus, AMARE, read-out: damage to plant AMARE (100=total damage; 0=no damage)
[4] = Echinochloa crus-galli, ECHCG, read-out: damage to plant ECHCG (100=total damage; 0=no damage)
[5] = Ipomoea hederacea, IPOHE, read-out: damage to plant IPOHE (100=total damage; 0=no damage)
[6] = Setaria faberi, SETFA, read-out: damage to plant SETFA (100=total damage; 0=no damage)

O=C(O)C(F)(F)c1ccc(OC(F)(F)F)cc1Cl [Compound 1-59, 2-[2-Chloro-4-(trifluoromethoxy)phenyl]-2,2-difluoro-acetic acid]
pest or weed control at 250 g/ha (AMAPA; 250 g/ha): 20%
pest or weed control at 250 g/ha (IPOHE; 250 g/ha): 10%
pest or weed control at 250 g/ha (ECHCG; 250 g/ha): 0%
pest or weed control at 250 g/ha (SETFA; 250 g/ha): 10%
pest or weed control at 250 g/ha (AMARE; 250 g/ha): 20%
plant injury at 250 g/ha (ZEAMX; 250 g/ha): 0%
pest or weed control at 250 g/ha (weeds and/or crops; [1]): 60%
pest or weed control at 250 g/ha (weeds and/or crops; [2]): 0%
pest or weed control at 250 g/ha (weeds and/or crops; [3]): 60%
pest or weed control at 250 g/ha (weeds and/or crops; [4]): 0%
pest or weed control at 250 g/ha (weeds and/or crops; [5]): 40%
pest or weed control at 250 g/ha (weeds and/or crops; [6]): 10%

COc1cccc(C(F)(F)C(=O)O)c1F [Compound 1-190, 2,2-Difluoro-2-(2-fluoro-3-methoxy-phenyl)acetic acid]
pest or weed control at 1000 g/ha (AMAPA): 80%
pest or weed control at 1000 g/ha (IPOHE): 90%
pest or weed control at 1000 g/ha (ECHCG): 0%
pest or weed control at 1000 g/ha (SETFA): 20%
pest or weed control at 1000 g/ha (AMARE): 80%
plant injury at 1000 g/ha (ZEAMX): 0%
pest or weed control at 1000 g/ha (weeds and/or crops; [1]): 80%
pest or weed control at 1000 g/ha (weeds and/or crops; [2]): 10%
pest or weed control at 1000 g/ha (weeds and/or crops; [3]): 90%
pest or weed control at 1000 g/ha (weeds and/or crops; [4]): 40%
pest or weed control at 1000 g/ha (weeds and/or crops; [5]): 60%
pest or weed control at 1000 g/ha (weeds and/or crops; [6]): 20%

N#Cc1cccc(C(F)(F)C(=O)O)c1F [Compound 1-192, 2-(3-Cyano-2-fluoro-phenyl)-2,2-difluoro-acetic acid]
pest or weed control at 1000 g/ha (AMAPA): 70%
pest or weed control at 1000 g/ha (IPOHE): 70%
pest or weed control at 1000 g/ha (ECHCG): 0%
pest or weed control at 1000 g/ha (SETFA): 50%
pest or weed control at 1000 g/ha (AMARE): 80%
plant injury at 1000 g/ha (ZEAMX): 0%
pest or weed control at 1000 g/ha (weeds and/or crops; [1]): 80%
pest or weed control at 1000 g/ha (weeds and/or crops; [2]): 20%
pest or weed control at 1000 g/ha (weeds and/or crops; [3]): 80%
pest or weed control at 1000 g/ha (weeds and/or crops; [4]): 30%
pest or weed control at 1000 g/ha (weeds and/or crops; [5]): 70%
pest or weed control at 1000 g/ha (weeds and/or crops; [6]): 60%

COc1cccc(C(F)(F)C(=O)O)c1C [Compound 1-242, 2,2-Difluoro-2-(3-methoxy-2-methyl-phenyl)acetic acid]
pest or weed control at 1000 g/ha (AMAPA): 70%
pest or weed control at 1000 g/ha (IPOHE): 60%
pest or weed control at 1000 g/ha (ECHCG): 0%
pest or weed control at 1000 g/ha (SETFA): 10%
pest or weed control at 1000 g/ha (AMARE): 70%
plant injury at 1000 g/ha (ZEAMX): 10%
pest or weed control at 1000 g/ha (weeds and/or crops; [1]): 80%
pest or weed control at 1000 g/ha (weeds and/or crops; [2]): 10%
pest or weed control at 1000 g/ha (weeds and/or crops; [3]): 80%
pest or weed control at 1000 g/ha (weeds and/or crops; [4]): 10%
pest or weed control at 1000 g/ha (weeds and/or crops; [5]): 70%
pest or weed control at 1000 g/ha (weeds and/or crops; [6]): 10%

Cc1c(C#N)cccc1C(F)(F)C(=O)O [Compound 1-244, 2-(3-Cyano-2-methyl-phenyl)-2,2-difluoro-acetic acid]
pest or weed control at 1000 g/ha (AMAPA): 80%
pest or weed control at 1000 g/ha (IPOHE): 90%
pest or weed control at 1000 g/ha (ECHCG): 50%
pest or weed control at 1000 g/ha (SETFA): 90%
pest or weed control at 1000 g/ha (AMARE): 90%
plant injury at 1000 g/ha (ZEAMX): 40%
pest or weed control at 1000 g/ha (weeds and/or crops; [1]): 90%
pest or weed control at 1000 g/ha (weeds and/or crops; [2]): 60%
pest or weed control at 1000 g/ha (weeds and/or crops; [3]): 90%
pest or weed control at 1000 g/ha (weeds and/or crops; [4]): 60%
pest or weed control at 1000 g/ha (weeds and/or crops; [5]): 70%
pest or weed control at 1000 g/ha (weeds and/or crops; [6]): 70%

N#Cc1c(F)cccc1C(F)(F)C(=O)O [Compound 1-261, 2-(2-Cyano-3-fluoro-phenyl)-2,2-difluoro-acetic acid]
pest or weed control at 1000 g/ha (AMAPA): 50%
pest or weed control at 1000 g/ha (IPOHE): 40%
pest or weed control at 1000 g/ha (ECHCG): 10%
pest or weed control at 1000 g/ha (SETFA): 10%
pest or weed control at 1000 g/ha (AMARE): 40%
plant injury at 1000 g/ha (ZEAMX): 0%
pest or weed control at 1000 g/ha (weeds and/or crops; [1]): 70%
pest or weed control at 1000 g/ha (weeds and/or crops; [2]): 20%
pest or weed control at 1000 g/ha (weeds and/or crops; [3]): 70%
pest or weed control at 1000 g/ha (weeds and/or crops; [4]): 0%
pest or weed control at 1000 g/ha (weeds and/or crops; [5]): 40%
pest or weed control at 1000 g/ha (weeds and/or crops; [6]): 30%
